According to EP0973746B1, “SUBSTITUTED 3-CYANO QUINOLINES” (Wyeth Holdings Corporation, priority 1997, dated 1998):
In brackets after ≈: the same amount, converted by molar mass.

System: B7474
Assay: Inhibition of cancer cell growth as measured by cell number, B7474
Format: cell-based
Conditions: Homo sapiens, 48 h, read-out: IC50 B7474

Molecule `CCOc1cc2ncc(C#N)c(Nc3cccc(Br)c3)c2cc1OCC` [Example 47, 4-[(3-Bromophenyl)amino]6,7-diethoxy-3-quinolinecarbonitrile] has an IC50 of 0.233 µg/mL (≈ 0.566 µM).
